Test results as given in US20180110777A1, “METHOD FOR REGULATION OF TELOMERE LENGTH” (The Johns Hopkins University, priority 2015, published 2018).

Assays:
SL13 cells [1] = experiment: Telomere Southern blot after lentiviral overexpression of mTR and mTERT; type: cell-based, mouse; settings: SL13 cells transduced with lentivirus expressing mTR and mTERT; day 6
SL13 cells [2] = experiment: ADDIT assay (addition of de novo initiated telomeres; modified STELA with PacBio sequencing or Southern blot); type: cell-based, mouse
From the text: To critically access the role of ATM, as well as other potential telomere length regulators, an assay was developed that measures telomere repeat addition in cells over 48 hr. CAST/EiJ mouse fibroblast cell line was engineered to (SL13) contain a conditional mTR allele and a modified chromosome 4 (chr4) with an internal 480 bp telomere ‘seed’ sequence followed by a unique I-Sce1 endonuclease cut site (FIG. 5 and see Experimental Procedures). The internal telomere ‘seed’ sequence can be conditionally exposed by I-Sce1 endonuclease cleavage (FIG. 1A) and then be elongated by telomerase in a manner similar to de novo telomere addition shown to occur in yeast (Diede and Gottschling, 1999, Cell 99, 723-733).
To better detect the telomere elongation, the single telomere length analysis (STELA) assay was modified (Baird et al., 2004, Hum Mol Genet 13, 1515-1524), to measure telomere length at the in vivo cut chr4. The linker, ‘telorette’, was ligated to the telomere and PCR amplified the telomere using the ‘teltail’ primer and an internal primer in the hygromycin resistance (HYG) sequence on the engineered chromosome (FIG. 1B). To determine the un-extended cut chromosome length in vitro, a different linker was designed, ‘IScerette’, which anneals to the 4-nt 3′ overhang created by the I-Sce1 endonuclease (FIG. 1B). PCR using the forward primers, F1 or F2, and the teltail generated products of predicted size on a Southern blot (data not shown).
To further verify telomere addition had occurred, the PCR products were sequenced with Pacific Biosciences (PacBio®) sequencing. PacBio® produces long sequence reads that allowed us to determine telomere length. While sequencing errors, predominantly point insertions and deletions, occurred as expected, the telomere repeats were easily recognizable. To assure products were full length, the PacBio® reads were filtered to examine only those that had the unique HYG sequence followed by the seed telomere repeat sequence and also had the ‘teltail’ primer sequence (FIG. 6). […] The I-Sce1 site is shown boxed (FIG. 1C). Three regions of variant telomere repeats were noted, evident as darker stripes in the aligned reads, that were present in the original SL13 clone, and served as useful sequence reference points (FIG. 1C). If there were degradation past these variants and then new TTAGGG (SEQ ID NO: 100) repeat synthesis in vivo, these landmarks would be removed.
The sequence length distribution in the ADDIT assay represents telomere elongation, incomplete telomere replication and in vivo end resection (as well as PacBio® sequencing errors).
Cell lines were grown in DMEM (Gibco) supplemented with 1% Penicillin/Streptomycin/Glutamine (PSG) and 10% heat inactivated FBS (Invitrogen). SL13 cells were grown in DMEM (Gibco) supplemented with 1% PSG and 10% Tet system approved FBS (Clontech, #631107). Cells were treated with ATM inhibitor KU55933 (R&D Systems, #3544), ATR inhibitor VE821 (Selleckchem, #S8007) or PARP1 inhibitor Olaparib (Selleckchem, #1060) at indicated concentrations or DMSO as a control. For the ADDIT assay, SL13 cells were treated with final concentration 2 μg/ml of doxycycline for typically 48 hr or as indicated.
The original STELA protocol used for human cells (Baird et al., 2004, Hum Mol Genet 13, 1515-1524) was modified to measure telomere lengths on the cut end of chr4 in SL13 cells. Briefly, genomic DNA was extracted using Puregene Core Kit A™ (Qiagen). 4 μg of genomic DNA was digested with Sph1 (NEB) and later diluted to 10 ng/μl in water. For the in vitro IScerette sample, genomic DNA was digested with SphI and I-SceI (NEB) prior to ligation. The ligation was carried out at 35° C. for at least 12 hr in a volume of 10 μl containing 10 ng of digested genomic DNA, 0.9 μM of telorette linkers or IScerette linker and 0.5 U of T4 DNA ligase (NEB) in 1×T4 ligation buffer. […]

CS(=O)(=O)c1ccc(-c2cnc(N)c(C(=O)Nc3ccccc3)n2)cc1 [VE821]
telomere elongation on overexpression of telomerase (Southern blot) (SL13 cells [1]): subtle but reproducible decreased elongation at day 6

CN[C@H]1CCc2cc(OC)c(OC)c(OC)c2-c2ccc(OC)c(=O)cc21 [colcemid]
de novo telomere addition / telomere elongation in ADDIT assay (in words) (SL13 cells [2]; PacBio sequencing of STELA products, compared to controls): No significant difference of de novo elongation

CN1CC[C@H](c2c(O)cc(O)c3c(=O)cc(-c4ccccc4Cl)oc23)[C@H](O)C1 [flavopiridol]
percentage of reads with de novo telomere addition (SL13 cells [2]; 400 nM flavopiridol, 48 hrs, DMSO control 24%): less than 2%
elongation in Southern blot analysis of STELA PCR products (SL13 cells [2]; flavopiridol-treated sample): minimal elongation beyond the chr4 I-Sce1-induced cut base line
